# ChEMBL document CHEMBL3885861, “Open TG-GATES”
# Species on record: Rattus norvegicus
# Assay: Open TG-GATES - Regimen: Daily Repeat
# Format: toxicity, organism-based, Sprague-Dawley
# Set-up: regimen Daily Repeat, gender Male, age 6 weeks
# Settings: in vivo, po, 1000 mg/kg, route gavage, dose level High; for APTT / Bas / Eos / Fbg / Hb / Ht / Lym / MCH / MCHC / MCV / Mono / Neu / PT / Plat / RBC / Ret / WBC: tissue Blood
# [1] = 72 h, tissue Kidney, time 3 day
# [2] = 72 h, tissue Plasma, time 3 day
smiles,measurement,setting,value
O=C(N[C@H](CO)[C@H](O)c1ccc([N+](=O)[O-])cc1)C(Cl)Cl [CHLORAMPHENICOL],TERMINAL_BW,"72 h, time 3 day",243.9 g
same,APTT,"72 h, time 3 day",17 s
same,Bas,"72 h, time 3 day",0%
same,Eos,"72 h, time 3 day",1.4%
same,Fbg,"72 h, time 3 day",313.4 mg/dL
same,Hb,"72 h, time 3 day",13.3 g/dL
same,Ht,"72 h, time 3 day",40.7%
same,Lym,"72 h, time 3 day",87.8%
same,MCH,"72 h, time 3 day",21.1 pg
same,MCHC,"72 h, time 3 day",32.7%
same,MCV,"72 h, time 3 day",64.6 fL
same,Mono,"72 h, time 3 day",3.2%
same,Neu,"72 h, time 3 day",7%
same,PT,"72 h, time 3 day",14.6 s
same,Plat,"72 h, time 3 day",109.7 x10_4/uL
same,RBC,"72 h, time 3 day",630.6 x10_4/ul
same,Ret,"72 h, time 3 day",2.3%
same,WBC,"72 h, time 3 day",63.9 x10_2/uL
same,KIDNEY_L,[1],1.1 g
same,KIDNEY_R,[1],1.1 g
same,KIDNEY_TOTAL,[1],2.2 g
same,LIVER,"72 h, tissue Liver, time 3 day",13.2 g
same,A/G,[2],0.9
same,ALP,[2],1258.6 IU/L
same,ALT,[2],41 IU/L
same,AST,[2],75 IU/L
same,BUN,[2],16.6 mg/dL
same,CRE,[2],0.2 mg/dL
same,Ca,[2],10.5 mg/dL
same,Cl,[2],106.8 meq/L
same,DBIL,[2],0.012 mg/dL
same,GLC,[2],168.4 mg/dL
same,IP,[2],6.2 mg/dL
same,K,[2],4.3 meq/L
same,LDH,[2],85.6 IU/L
same,Na,[2],141.6 meq/L
same,PL,[2],138.6 mg/dL
same,RALB,[2],2.4 g/dL
same,TBIL,[2],0.05 mg/dL
same,TC,[2],72.6 mg/dL
same,TG,[2],82.6 mg/dL
same,TP,[2],5.2 g/dL
same,gamma-GTP,[2],1 IU/L
same,TERMINAL_BW,"[…], time 7 day",275.6 g
same,TERMINAL_BW,"[…], time 14 day",327.3 g
same,TERMINAL_BW,"[…], time 28 day",381.6 g
same,APTT,"[…], time 7 day",16.3 s
same,Bas,"[…], time 7 day",0%
same,Eos,"[…], time 7 day",1%
same,Fbg,"[…], time 7 day",339.2 mg/dL
same,Hb,"[…], time 7 day",13 g/dL
same,Ht,"[…], time 7 day",40%
same,Lym,"[…], time 7 day",84.4%
same,MCH,"[…], time 7 day",20.6 pg
same,MCHC,"[…], time 7 day",32.5%
same,MCV,"[…], time 7 day",63.3 fL
same,Mono,"[…], time 7 day",2.4%
same,Neu,"[…], time 7 day",11.4%
same,PT,"[…], time 7 day",14.8 s
same,Plat,"[…], time 7 day",126.1 x10_4/uL
same,RBC,"[…], time 7 day",631.6 x10_4/ul
same,Ret,"[…], time 7 day",4.9%
same,WBC,"[…], time 7 day",79.2 x10_2/uL
same,APTT,"[…], time 14 day",15.6 s
same,Bas,"[…], time 14 day",0%
same,Eos,"[…], time 14 day",1%
same,Fbg,"[…], time 14 day",325.6 mg/dL
same,Hb,"[…], time 14 day",13.9 g/dL
same,Ht,"[…], time 14 day",42.9%
same,Lym,"[…], time 14 day",87.2%
same,MCH,"[…], time 14 day",20.6 pg
same,MCHC,"[…], time 14 day",32.3%
same,MCV,"[…], time 14 day",63.6 fL
same,Mono,"[…], time 14 day",2.8%
same,Neu,"[…], time 14 day",8.4%
same,PT,"[…], time 14 day",14.9 s
same,Plat,"[…], time 14 day",116.9 x10_4/uL
same,RBC,"[…], time 14 day",675.6 x10_4/ul
same,Ret,"[…], time 14 day",4.4%
same,WBC,"[…], time 14 day",86.3 x10_2/uL
same,APTT,"[…], time 28 day",16.3 s
same,Bas,"[…], time 28 day",0%
same,Eos,"[…], time 28 day",1.2%
same,Fbg,"[…], time 28 day",303 mg/dL
same,Hb,"[…], time 28 day",14.6 g/dL
same,Ht,"[…], time 28 day",42.8%
